Laboratory results taken from patent US20080194574A1, “Pyrazine Derivatives As Effective Compounds Against Infectious Diseases” (AXXIMA PHARMACEUTICALS AG, priority 2003, published 2008).
Where two headings read alike, the source gives them in different places.

Target: T1, viral kinase pUL-97 (Human cytomegalovirus, UniProt P16788)
T1 construct: The pUL-97 gene was cloned into a baculovirus vector; GST (glutathione S-transferase) (N); made in house; host or cells: Sf9 insect cells, baculovirus
Assay: UL97 kinase assay on Immobilon plate
Type: biochemical
Conditions: inhibition of UL 97 kinase activity, read-out: Activity Class [A, B, C]
Procedure, shortened: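 GST-pUL97 from baculovirus-infected Sf9 cells phosphorylated myelin basic protein with ATP (3 μM in the added assay buffer) and γ-[33P]ATP in Tris-HCl pH 7.5 buffer with MnCl2 and DTT. Reaction ran 1 h at 30 °C with graded compound concentrations and was stopped with EDTA. 33P incorporation was measured by scintillation after filter capture and phosphoric acid washes.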

[1] = class by IC50 / % inhibition at 10 μM or 100 μM
[2] = class by IC50 / % inhibition at 10 or 100 μM

T1 sequence (P16788 whole entry): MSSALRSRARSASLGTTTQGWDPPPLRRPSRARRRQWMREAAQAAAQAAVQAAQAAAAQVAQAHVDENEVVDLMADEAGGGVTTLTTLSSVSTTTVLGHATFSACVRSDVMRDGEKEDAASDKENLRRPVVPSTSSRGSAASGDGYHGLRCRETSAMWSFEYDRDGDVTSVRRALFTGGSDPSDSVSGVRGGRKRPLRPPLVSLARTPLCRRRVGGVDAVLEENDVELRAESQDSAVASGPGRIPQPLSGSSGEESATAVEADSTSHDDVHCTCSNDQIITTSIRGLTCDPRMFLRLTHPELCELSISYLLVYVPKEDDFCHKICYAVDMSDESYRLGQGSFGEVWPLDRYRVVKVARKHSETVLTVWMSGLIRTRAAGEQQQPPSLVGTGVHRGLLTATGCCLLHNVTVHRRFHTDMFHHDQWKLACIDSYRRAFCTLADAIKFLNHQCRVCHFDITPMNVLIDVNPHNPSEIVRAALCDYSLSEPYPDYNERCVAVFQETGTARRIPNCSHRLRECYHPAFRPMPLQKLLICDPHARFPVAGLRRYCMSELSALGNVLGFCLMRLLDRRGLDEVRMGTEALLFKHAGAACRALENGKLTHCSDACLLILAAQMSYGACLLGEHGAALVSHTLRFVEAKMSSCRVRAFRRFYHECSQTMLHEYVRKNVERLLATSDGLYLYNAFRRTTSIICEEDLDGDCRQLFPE

Compound	IC50 [1]	IC50 [2]
CC(C)(C)c1ccc(-c2cncc(N3CCN(c4ccncc4)CC3)n2)cc1 [compound 257, 6′-(4-tert-Butyl-phenyl)-4-pyridin-4-yl-3,4,5,6-tetrahydro-2H-[1,2′]bipyrazinyl]	1 to 10 µM	
Cc1cccc(-c2cncc(N3CCN(c4ccccn4)CC3)n2)c1 [compound 327, 4-Pyridin-2-yl-6′-m-tolyl-3,4,5,6-tetrahydro-2H-[1,2′]bipyrazinyl]	10 to 100 µM	
Fc1ccccc1N1CCN(c2cncc(-c3csc4ccccc34)n2)CC1 [compound 251, 6′-Benzo[b]thiophen-3-yl-4-(2-fluoro-phenyl)-3,4,5,6-tetrahydro-2H-[1,2′]bipyrazinyl]	10 to 100 µM	
COc1ccc(N2CCN(c3cncc(-c4cccc(OC)c4OC)n3)CC2)cc1OC [compound 171, 4-(3,4-Dimethoxy-phenyl)-6′-(2,3-dimethoxy-phenyl)-3,4,5,6-tetrahydro-2H-[1,2′]bipyrazinyl]		10 to 100 µM
Fc1ccccc1N1CCN(c2cncc(-c3cccc4ccccc34)n2)CC1 [compound 249, 4-(2-Fluoro-phenyl)-6′-naphthalen-1-yl-3,4,5,6-tetrahydro-2H-[1,2′]bipyrazinyl]	10 to 100 µM	
Cc1ccc(N2CCN(c3cncc(-c4ccc(F)c(Cl)c4)n3)CC2)c(C)c1 [compound 281, 6′-(3-Chloro-4-fluoro-phenyl)-4-(2,4-dimethyl-phenyl)-3,4,5,6-tetrahydro-2H-[1,2′]bipyrazinyl]	10 to 100 µM	
COc1ccc2cc(-c3cncc(N4CCN(c5ccc(C(C)=O)cc5)CC4)n3)ccc2c1 [compound 213, 1-{4-[6′-(6-Methoxy-naphthalen-2-yl)-2,3,5,6-tetrahydro-[1,2′]bipyrazinyl-4-yl]-phenyl}-ethanone]	1 to 10 µM	
c1ccc(N2CCN(c3cncc(-c4cccc5ccccc45)n3)CC2)cc1 [compound 246, 6′-Naphthalen-1-yl-4-phenyl-3,4,5,6-tetrahydro-2H-[1,2′]bipyrazinyl]	10 to 100 µM	
COc1ccc(C(C)C)cc1-c1cncc(N2CCN(c3ccncc3)CC2)n1 [compound 55, 6′-(5-Isopropyl-2-methoxy-phenyl)-4-pyridin-4-yl-3,4,5,6-tetrahydro-2H-[1,2′]bipyrazinyl]		10 to 100 µM
Cc1cc(C)cc(-c2cncc(N3CCN(c4cccc(C)c4)C(C)C3)n2)c1 (centres unmarked) [compound 339, 6′-(3,5-Dimethyl-phenyl)-3-methyl-4-m-tolyl-3,4,5,6-tetrahydro-2H-[1,2′]bipyrazinyl]	10 to 100 µM	
c1cncc(-c2cncc(N3CCN(c4ccncc4)CC3)n2)c1 [compound 54, 4-Pyridin-4-yl-6′-pyridin-3-yl-3,4,5,6-tetrahydro-2H-[1,2′]bipyrazinyl]		10 to 100 µM
Fc1cc(-c2cncc(N3CCN(c4cnccn4)CC3)n2)ccc1-c1ccccc1 [compound 334, 6-(2-Fluoro-biphenyl-4-yl)-2′,3′,5′,6′-tetrahydro-[2,1′;4′,2″]terpyrazine]	10 to 100 µM	
CC(=O)c1cccc(-c2cncc(N3CCN(c4ccccn4)CC3)n2)c1 [compound 307, 1-[3-(4-Pyridin-2-yl-3,4,5,6-tetrahydro-2H-[1,2′]bipyrazinyl-6′-yl)-phenyl]-ethanone]	1 to 10 µM	
COc1ccccc1N1CCN(c2cncc(-c3ccc(SC)cc3)n2)CC1 [compound 108, 4-(2-Methoxy-phenyl)-6′-(4-methylsulfanyl-phenyl)-3,4,5,6-tetrahydro-2H-[1,2′]bipyrazinyl]		1 to 10 µM
COc1ccc(N2CCN(c3cncc(-c4ccc(F)cc4F)n3)CC2)cc1OC [compound 41, 6′-(2,4-Difluoro-phenyl)-4-(3,4-dimethoxy-phenyl)-3,4,5,6-tetrahydro-2H-[1,2′]bipyrazinyl]		10 to 100 µM
OCc1ccc(-c2cncc(N3CCN(c4ccc(Cl)c(Cl)c4)CC3)n2)cc1 [compound 315, {4-[4-(3,4-Dichloro-phenyl)-3,4,5,6-tetrahydro-2H-[1,2′]bipyrazinyl-6′-yl]-phenyl}-methanol]	1 to 10 µM	
Fc1cccc(-c2cncc(N3CCN(c4ccccc4)CC3)n2)c1 [compound 194, 6′-(3-Fluoro-phenyl)-4-phenyl-3,4,5,6-tetrahydro-2H-[1,2′]bipyrazinyl]		10 to 100 µM
Nc1ncc(-c2ccc3ccccc3c2)nc1N1CCN(c2ccncc2)CC1 [compound 73, 6′-Naphthalen-2-yl-4-pyridin-4-yl-3,4,5,6-tetrahydro-2H-[1,2′]bipyrazinyl-3′-ylamine]		< 1 µM
COc1ccc(-c2cncc(N3CCC(c4ccccc4)CC3)n2)cc1OC [compound 360, 2-(3,4-Dimethoxy-phenyl)-6-(4-Phenyl-piperidin-1-yl)-pyrazine]	1 to 10 µM	
CN(C)c1ccc(-c2cncc(N3CCN(c4cccc(Cl)c4)CC3)n2)cc1 [compound 182, {4-[4-(3-Chloro-phenyl)-3,4,5,6-tetrahydro-2H-[1,2′]bipyrazinyl-6′-yl]-phenyl}-dimethyl-amine]		10 to 100 µM
Fc1ccc(-c2cncc(N3CCN(c4ccc(Cl)c(Cl)c4)CC3)n2)cc1 [compound 370]	10 to 100 µM	

Compound	IC50 [1]	IC50 [2]
CSc1ccc(-c2cncc(N3CCN(c4cnccn4)CC3)n2)cc1 [compound 314, 6-(4-Methylsulfanyl-phenyl)-2′,3′,5′,6′-tetrahydro-[2,1′;4′,2″]terpyrazine]	1 to 10 µM	
c1ccc(N2CCN(c3cncc(-c4ccsc4)n3)CC2)nc1 [compound 350, 4-Pyridin-2-yl-6′-thiophen-3-yl-3,4,5,6-tetrahydro-2H-[1,2′]bipyrazinyl]	1 to 10 µM	
CSc1ccc(-c2cncc(N3CCN(c4cccc(C)c4)C(C)C3)n2)cc1 (centres unmarked) [compound 301, 3-Methyl-6′-(4-methylsulfanyl-phenyl)-4-m-tolyl-3,4,5,6-tetrahydro-2H-[1,2′]bipyrazinyl]	10 to 100 µM	
c1ccc(-c2cncc(N3CCN(c4ccncc4)CC3)n2)cc1 [compound 67, 6′-Phenyl-4-pyridin-4-yl-3,4,5,6-tetrahydro-2H-[1,2′]bipyrazinyl]		1 to 10 µM
Fc1ccc(-c2cncc(N3CCN(c4cccc(Cl)c4)CC3)n2)cc1Cl [compound 238, 6′-(3-Chloro-4-fluoro-phenyl)-4-(3-chloro-phenyl)-3,4,5,6-tetrahydro-2H-[1,2′]bipyrazinyl]	10 to 100 µM	
c1ccc(N2CCN(c3cncc(-c4ccoc4)n3)CC2)cc1 [compound 118, 6′-Furan-3-yl-4-phenyl-3,4,5,6-tetrahydro-2H-[1,2′]bipyrazinyl]		1 to 10 µM
Cc1ccc(N2CCN(c3cncc(-c4cccc(C)c4)n3)CC2)cc1 [compound 228, 6′-m-Tolyl-4-p-tolyl-3,4,5,6-tetrahydro-2H-[1,2′]bipyrazinyl]	10 to 100 µM	
NCc1ccc(-c2cncc(N3CCN(C(=O)c4ccco4)CC3)n2)cc1 [compound 59, [6′-(4-Aminomethyl-phenyl)-2,3,5,6-tetrahydro-[1,2′]bipyrazinyl-4-yl]-furan-2-yl-methanone]		10 to 100 µM
c1cncc(-c2cncc(N3CCN(c4cccc5[nH]ccc45)CC3)n2)c1 [compound 64, 4-(1H-Indol-4-yl)-6′-pyridin-3-yl-3,4,5,6-tetrahydro-2H-[1,2′]bipyrazinyl]		1 to 10 µM
FC(F)(F)c1cccc(-c2cncc(N3CCN(c4ccncc4)CC3)n2)c1 [compound 32, 4-Pyridin-4-yl-6′-(3-trifluoromethyl-phenyl)-3,4,5,6-tetrahydro-2H-[1,2′]bipyrazinyl]		< 1 µM
c1ccc(Oc2ccc(-c3cncc(N4CCN(c5ccncc5)CC4)n3)cc2)cc1 [compound 163, 6′-(4-Phenoxy-phenyl)-4-pyridin-4-yl-3,4,5,6-tetrahydro-2H-[1,2′]bipyrazinyl]		1 to 10 µM
COc1cccc(N2CCN(c3cncc(-c4ccc(C(F)(F)F)cc4)n3)CC2)c1 [compound 356, 4-(3-Methoxy-phenyl)-6′-(4-trifluoromethyl-phenyl)-3,4,5,6-tetrahydro-2H-[1,2′]bipyrazinyl]	1 to 10 µM	
COc1cccc(-c2cncc(N3CCN(c4ccccc4OC)CC3)n2)c1 [compound 105, 4-(2-Methoxy-phenyl)-6′-(3-methoxy-phenyl)-3,4,5,6-tetrahydro-2H-[1,2′]bipyrazinyl]		1 to 10 µM
CC(C)(C)c1ccc(-c2cncc(N3CCN(c4cnccn4)CC3)n2)cc1 [compound 333, 6-(4-tert-Butyl-phenyl)-2′,3′,5′,6′-tetrahydro-[2,1′;4′,2″]terpyrazine]	10 to 100 µM	
Cc1cccc(-c2cncc(N3CCN(c4cccc(C(F)(F)F)c4)CC3)n2)c1 [compound 154, 6′-m-Tolyl-4-(3-trifluoromethyl-phenyl)-3,4,5,6-tetrahydro-2H-[1,2′]bipyrazinyl]		10 to 100 µM
COc1ccc(N2CCN(c3cncc(-c4cccc5ccccc45)n3)CC2)cc1OC [compound 43, 4-(3,4-Dimethoxy-phenyl)-6′-naphthalen-1-yl-3,4,5,6-tetrahydro-2H-[1,2′]bipyrazinyl]		10 to 100 µM
Cc1ccccc1-c1cncc(N2CCN(c3ccccc3F)CC2)n1 [compound 124, 4-(2-Fluoro-phenyl)-6′-o-tolyl-3,4,5,6-tetrahydro-2H-[1,2′]bipyrazinyl]		10 to 100 µM
COc1ccc(N2CCN(c3cncc(-c4cccc(C#N)c4)n3)CC2)cc1OC [compound 173, 3-[4-(3,4-Dimethoxy-phenyl)-3,4,5,6-tetrahydro-2H-[1,2′]bipyrazinyl-6′-yl]-benzonitrile]		10 to 100 µM
c1ccc(C2CCN(c3cncc(-c4ccc5ccccc5c4)n3)CC2)cc1 [compound 337, 2-Naphthalen-2-yl-6-(4-phenyl-piperidin-1-yl)-pyrazine]	1 to 10 µM	
CC(=O)c1ccc(-c2cncc(N3CCN(c4cccc(C)c4C)CC3)n2)cc1 [compound 298, 1-{4-[4-(2,3-Dimethyl-phenyl)-3,4,5,6-tetrahydro-2H-[1,2′]bipyrazinyl-6′-yl]-phenyl}-ethanone]	10 to 100 µM	
